US7795255B2, “Rigidified compounds for modulating heparanase activity” (InSight Biopharmaceuticals Ltd., priority 2005, dated 2010)
pIC50: −log10 of the molar value.

Assays:
[1] = target: β-FGF (Homo sapiens, UniProt P09038); test: ELISA for determination of binding of β-FGF to heparin; settings: for pIC50: inhibition of β-FGF binding to heparin, NI = no inhibition; for inhibition of β-FGF binding to heparin: inhibition towards both growth factors
Description: ELISA for determination of binding of β-FGF to heparin: 96-well microplates were coated for 2 hours at 23-25° C. with 5 μg/ml heparin-albumin (Rimon Biotech) and blocked with 1% BSA in PBS, with 0.05% Tween, and 0.01% thimerosal for 2 hours. β-FGF was added to the plates at a concentration of 10 ng/ml and plates were incubated for 45 minutes at 23-25° C. The amount of β-FGF bound to heparin was detected using anti-FGF monoclonal antibody (Sigma Cat. No. F6162) at a concentration of 2.5 ng/ml and secondary antibodies Sheep anti-mouse IgG linked to horseradish peroxidase (1:3000) TMB (Pierce Cat. No. 34021) was used as a substrate for peroxidase. The plates were read at 450 nm with a reference wavelength of 630 nm using a VERSAmax plate reader.

[2] = target: T1, vascular endothelial growth factor (VEGF) (Homo sapiens, UniProt P15692); test: ELISA for determination of binding of VEGF to heparin; settings: for pIC50: inhibition of VEGF binding to heparin, NI = no inhibition; for inhibition of VEGF binding to heparin: inhibition towards both growth factors
T1 sequence (P15692 27-191 isoform P15692-4): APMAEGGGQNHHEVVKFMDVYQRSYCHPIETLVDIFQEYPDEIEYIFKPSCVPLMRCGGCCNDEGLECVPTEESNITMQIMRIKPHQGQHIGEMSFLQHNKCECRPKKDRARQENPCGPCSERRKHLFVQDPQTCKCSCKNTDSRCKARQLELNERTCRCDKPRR
Description: Enzyme-linked immunosorbent assay (ELISA) for determination of binding of vascular endothelial growth factor (VEGF) to heparin: 96-well microplates were coated for 2 hours. at 23-25° C. with 5 μg/ml heparin-albumin (Rimon Biotech) and blocked with 1% bovine serum albumin (BSA) in phosphate buffer (PBS) with 0.05% Tween and 0.01% thimerosal for 2 hours. VEGF was added to the plates at a concentration of 10 ng/ml and the plates were thereafter incubated for 45 minutes at 23-25° C. The amount of VEGF bound to heparin was detected using anti-VEGF monoclonal antibody (Sigma Cat. No. V4758) at a concentration of 0.26 μg/ml and secondary antibodies Sheep anti-mouse IgG linked to horseradish peroxidase (1:2000) using 3,3′,5,5′-tetramethylbenzidine (TMB, Pierce Cat. No. 34021) as a substrate for peroxidase. The plates were read at 450 nm with a reference wavelength of 630 nm using a VERSAmax plate reader. […] Percent inhibition was calculated as compared with a control pre-incubated with a solution of 1% DMSO and the results are presented in Table 3 below.

[3] = target: T2, heparanase (H53) (Homo sapiens, UniProt Q9Y251); test: Heparanase (H53) assay (DMB assay); type: biochemical; settings: for dual activity: inhibition of pro-heparanase activation (H60) and of heparanase activity (H53): compounds with an acidic group; for pIC50: inhibition of heparanase activity, DMB assay, NI = no inhibition
T2 construct: The 45 kDa major subunit and the 8 kDa small subunit hetero-complex to form the 53 kDa active form of heparanase
T2 sequence (Q9Y251 36-109 limits assumed): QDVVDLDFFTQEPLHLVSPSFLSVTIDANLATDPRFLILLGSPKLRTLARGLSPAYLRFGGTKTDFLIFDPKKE
T2 sequence (Q9Y251 158-543 limits assumed): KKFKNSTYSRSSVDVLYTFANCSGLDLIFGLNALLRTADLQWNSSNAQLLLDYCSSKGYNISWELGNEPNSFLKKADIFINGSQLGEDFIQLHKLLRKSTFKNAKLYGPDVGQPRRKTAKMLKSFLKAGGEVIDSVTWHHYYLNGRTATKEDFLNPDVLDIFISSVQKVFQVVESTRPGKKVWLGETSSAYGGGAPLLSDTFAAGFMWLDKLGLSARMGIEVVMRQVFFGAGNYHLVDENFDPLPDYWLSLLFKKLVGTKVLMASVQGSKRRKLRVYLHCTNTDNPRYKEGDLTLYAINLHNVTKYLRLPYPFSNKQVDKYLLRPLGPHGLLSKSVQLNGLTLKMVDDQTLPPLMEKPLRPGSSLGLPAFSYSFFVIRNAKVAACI
Description: Heparanase (H53) assay: The rigidified compounds described herein were tested for inhibition of heparanase activity in the DMB assay described in U.S. Pat. No. 6,190,875. IC50 was calculated from inhibition curves of all active compounds.

[4] = target: T3, recombinant human pro-heparanase (H60) (Homo sapiens, UniProt Q9Y251); test: Pro-heparanase (H60) activation in a cell-based assay; settings: inhibition of pro-heparanase activation in CHO cells; NI = no inhibition
T3 construct: Heparanase maturation involves the removal of the signal peptide, transforming the 65 kDa pre-pro-heparanase into a 60 kDa pro-heparanase; made in house
T3 sequence (Q9Y251 36-543): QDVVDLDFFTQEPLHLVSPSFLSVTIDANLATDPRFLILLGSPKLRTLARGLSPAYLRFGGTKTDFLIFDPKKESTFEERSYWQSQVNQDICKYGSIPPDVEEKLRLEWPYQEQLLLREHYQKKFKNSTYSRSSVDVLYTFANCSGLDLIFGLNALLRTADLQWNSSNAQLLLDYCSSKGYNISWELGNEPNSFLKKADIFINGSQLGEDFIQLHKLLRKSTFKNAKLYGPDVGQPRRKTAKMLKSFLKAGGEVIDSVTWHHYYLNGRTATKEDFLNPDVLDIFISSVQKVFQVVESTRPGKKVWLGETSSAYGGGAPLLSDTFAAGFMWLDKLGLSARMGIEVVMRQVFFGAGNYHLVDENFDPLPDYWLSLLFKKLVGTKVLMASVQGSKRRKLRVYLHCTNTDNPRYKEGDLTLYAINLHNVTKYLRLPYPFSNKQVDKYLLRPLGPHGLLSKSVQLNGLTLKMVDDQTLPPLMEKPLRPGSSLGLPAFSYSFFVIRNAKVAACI
Description: Pro-heparanase (H60) activation in a cell-based assay: Chinese hamster ovary (CHO) cells were grown in complete F12 medium supplemented with 10% fetal calf serum (FCS). […] The plates were incubated for 24 hours in a 37° C. humidified incubator with 5% CO2. […] The plates were further incubated for additional 4 hours. The pro-heparanase was allowed to internalize by the cells and further processed to generate the active 53 kDa heparanase. At the end of the incubation, the cells were lysed by three consecutive cycles of freezing and thawing in a −80° C. freezer and a 37° C. shaker.
The rigidified compounds described herein were tested for inhibition of pro-heparanase activation in the cell-based assay described above.

Chain of β-FGF (P09038 143-288): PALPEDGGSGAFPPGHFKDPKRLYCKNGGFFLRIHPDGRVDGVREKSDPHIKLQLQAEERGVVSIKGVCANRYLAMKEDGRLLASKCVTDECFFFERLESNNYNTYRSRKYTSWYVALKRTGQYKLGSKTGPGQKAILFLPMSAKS

CN(CC(=O)O)C(=O)CC(C)(C)CN1C(=O)c2cc3oc(-c4ccc(Cl)cc4)cc3n2C1=S [Compound 21, ({4-[2-(4-Chloro-phenyl)-6-oxo-4-thioxo-6H-1-oxa-3b,5-diaza-cyclopenta[a]pentalen-5-yl]-3,3-dimethyl-butyryl}-methyl-amino)-acetic acid]
pIC50 [1]: 5.19 | pIC50 [2]: 5.14 | dual activity: inhibition of pro-heparanase activation (H60) and of heparanase activity (H53) [3]: dual activity | pIC50 [3]: 4.18 | pIC50 [4]: 6.00

O=C(O)CCCN1C(=O)c2cc3oc(-c4ccc(Cl)cc4)cc3n2C1=S [Compound 5, 4-[2-(4-chloro-phenyl)-6-oxo-4-thioxo-6H-1-oxa-3b,5-diaza-cyclopenta[a]pentalen-5-yl]-butyric acid]
pIC50 [1]: 5.68 | pIC50 [2]: 5.22 | dual activity: inhibition of pro-heparanase activation (H60) and of heparanase activity (H53) [3]: dual activity | pIC50 [3]: 4.93 | pIC50 [4]: 6.00

CCOC(=O)CCCN1C(=O)c2cc3sc(-c4ccc([N+](=O)[O-])cc4)cc3n2C1=S [Compound 31, 4-[2-(4-nitro-phenyl)-6-oxo-4-thioxo-6H-1-thia-3b,5-diaza-cyclopenta[a]pentalen-5-yl]-butyric acid ethyl ester]
pIC50 [1]: 6.55 | inhibition of β-FGF binding to heparin [1]: sub-micromolar | pIC50 [2]: 7.15 | inhibition of VEGF binding to heparin [2]: sub-micromolar | pIC50 [3]: 4.13 | pIC50 [4]: 6.25

CC(C)(CC(=O)N1CCC[C@@H]1C(=O)O)CN1C(=O)c2cc3oc(-c4ccc(Cl)cc4)cc3n2C1=S [Compound 23, 1-{4-[2-(4-Chloro-phenyl)-6-oxo-4-thioxo-6H-1-oxa-3b,5-diaza-cyclopenta[a]pentalen-5-yl]-3,3-dimethyl-butyryl}-pyrrolidine-2-carboxylic acid]
pIC50 [1]: 5.10 | pIC50 [2]: 5.03 | dual activity: inhibition of pro-heparanase activation (H60) and of heparanase activity (H53) [3]: dual activity | pIC50 [4]: 6.09

COC(=O)CN(C)C(=O)CC(C)(C)CN1C(=O)c2cc3oc(-c4ccc(Cl)cc4)cc3n2C1=S [Compound 20, ({4-[2-(4-Chloro-phenyl)-6-oxo-4-thioxo-6H-1-oxa-3b,5-diaza-cyclopenta[a]pentalen-5-yl]-3,3-dimethyl-butyryl}-methyl-amino)-acetic acid methyl ester]
pIC50 [1]: 6.46 | inhibition of β-FGF binding to heparin [1]: sub-micromolar | pIC50 [2]: 6.38 | inhibition of VEGF binding to heparin [2]: sub-micromolar | pIC50 [4]: 6.49

Cc1c(N2C(=O)c3cc4oc(-c5ccc(Cl)cc5)cc4n3C2=S)c(=O)n(-c2ccccc2)n1C [Compound 29, 2-(4-chloro-phenyl)-5-(1,5-dimethyl-3-oxo-2-phenyl-2,3-dihydro-1H-pyrazol-4-yl)-4-thioxo-4,5-dihydro-1-oxa-3b,5-diaza-cyclopenta[a]pentalen-6-one]
pIC50 [1]: 6.09 | inhibition of β-FGF binding to heparin [1]: sub-micromolar | pIC50 [2]: 6.32 | inhibition of VEGF binding to heparin [2]: sub-micromolar | pIC50 [4]: 6.43

O=C(O)CCCN1C(=O)c2cc3oc(-c4cccc(C(F)(F)F)c4)cc3n2C1=S [Compound 26]
pIC50 [1]: 5.77 | pIC50 [2]: 5.32 | pIC50 [3]: 4.99 | pIC50 [4]: 6.11

CCN(CC)C(=O)CC1(CN2C(=O)c3cc4oc(-c5ccc(Cl)cc5)cc4n3C2=S)CCCCC1 [Compound 24, 2-{1-[2-(4-Chloro-phenyl)-6-oxo-4-thioxo-6H-1-oxa-3b,5-diaza-cyclopenta[a]pentalen-5-ylmethyl]-cyclohexyl}-N,N-diethyl-acetamide]
pIC50 [1]: 6.82 | inhibition of β-FGF binding to heparin [1]: sub-micromolar | pIC50 [2]: 7.05 | inhibition of VEGF binding to heparin [2]: sub-micromolar | pIC50 [4]: 5.82

CN(C)CCCNC(=O)CC(C)(C)CN1C(=O)c2cc3oc(-c4ccc(Cl)cc4)cc3n2C1=S [Compound 15, 4-[2-(4-Chloro-phenyl)-6-oxo-4-thioxo-6H-1-oxa-3b,5-diaza-cyclopenta[a]pentalen-5-yl]-N-(3-dimethylamino-propyl)-3,3-dimethyl-butyramide]
pIC50 [1]: 6.36 | inhibition of β-FGF binding to heparin [1]: sub-micromolar | pIC50 [2]: 6.74 | inhibition of VEGF binding to heparin [2]: sub-micromolar | pIC50 [4]: 6.80

COCCCN1C(=O)c2cc3oc(-c4ccc(Cl)cc4)cc3n2C1=S [Compound 28, 2-(4-Chloro-phenyl)-5-(3-methoxy-propyl)-4-thioxo-4,5-dihydro-1-oxa-3b,5-diaza-cyclopenta[a]pentalen-6-one]
pIC50 [1]: 7.70 | inhibition of β-FGF binding to heparin [1]: sub-micromolar | pIC50 [2]: 6.77 | inhibition of VEGF binding to heparin [2]: sub-micromolar | pIC50 [4]: 5.18

CCOC(=O)CCCN1C(=O)c2cc3oc(-c4ccc(Cl)cc4)cc3n2C1=S [Compound 4, ethyl 4-[2-(4-chloro-phenyl)-6-oxo-4-thioxo-6H-1-oxa-3b,5-diaza-cyclopenta[a]pentalen-5-yl]-butyric acid ethyl ester]
pIC50 [1]: 7.22 | pIC50 [2]: 6.89 | pIC50 [4]: 6.12

CCOC(=O)CC(C)(C)CN1C(=O)c2cc3oc(-c4ccc([N+](=O)[O-])cc4)cc3n2C1=S [Compound 7, 3,3-dimethyl-4-[2-(4-nitro-phenyl)-6-oxo-4-thioxo-6H-1-oxa-3b,5-diaza-cyclopenta[a]pentalen-5-yl]-butyric acid ethyl ester]
pIC50 [1]: 7.30 | inhibition of β-FGF binding to heparin [1]: sub-micromolar | pIC50 [2]: 7.00 | inhibition of VEGF binding to heparin [2]: sub-micromolar | pIC50 [4]: 5.59

CCOC(=O)CCCN1C(=O)c2cc3oc(-c4cccc(C(F)(F)F)c4)cc3n2C1=S [Compound 25, ethyl 4-[6-oxo-4-thioxo-2-(3-trifluoromethyl-phenyl)-6H-1-oxa-3b,5-diaza-cyclopenta[a]pentalen-5-yl]-butyric acid ethyl ester]
pIC50 [1]: 6.92 | pIC50 [2]: 6.85 | pIC50 [4]: 5.57

O=C(O)CCCN1C(=O)c2cc3sc(-c4ccc([N+](=O)[O-])cc4)cc3n2C1=S [Compound 32, 4-[2-(4-Nitro-phenyl)-6-oxo-4-thioxo-6H-1-thia-3b,5-diaza-cyclopenta[a]pentalen-5-yl]-butyric acid]
pIC50 [3]: 4.57 | pIC50 [4]: 6.15
